The subject of one series is A549. Briefly: SRB cytotoxicity assay, A549. In kind it is cell-based. The following applies: Homo sapiens, read-out: IC50 Cytotoxicity A549. The text has this: (§1) The cell lines MDA-MB-231 (No. TCHu227), A549 (No. TCHu150), and HepG2 (No. TCHu72) were obtained from the Cell Bank/Stem Cell Bank, Chinese Academy of Sciences (Shanghai, China). The cell lines DLD-1 (No. CC0507) and HCT116 (No. CC0506) were obtained from the Cell Bank of Cellcook Biotech Co., Ltd. (Guangzhou, China). Cell line HL-7702 (No. BNCC338358) was obtained from Bena Culture Collection (Zhengzhou, China).
(§2) The human cancer cell lines MDA-MB-231 (breast adenocarcinoma), DLD-1 (colorectal adenocarcinoma), A549 (lung epithelial carcinoma), HCT116 (colorectal adenocarcinoma), HepG2 (hepatocellular carcinoma), and human hepatocyte HL-7702 were cultured in Dulbecco’s modified eagle medium (DMEM, Biological Industries, Beit Haemek, Israel) containing 10% (v/v) fetal bovine serum (FBS, Biological Industries, Beit Haemek, Israel) at 37 °C in a humidified incubator (ThermoFisher, Carlsbad, CA, USA) with a 5% CO2 atmosphere.
(The SRB assay estimates cell density from bound dye.)

The subject of the next series is HCT116. Nature of the series: SRB cytotoxicity assay, HCT116. It counts as cell-based. The following applies: Homo sapiens, read-out: IC50 Cytotoxicity HCT116.
Description: as §1, §2

In a further series the test system is MDA-MB-231. Nature of the series: SRB cytotoxicity assay, MDA-MB-231. It counts as cell-based. Particulars: Homo sapiens, read-out: IC50 Cytotoxicity MDA-MB-231.
Description: as §1, §2

The test system of a further series is HepG2. Briefly: SRB cytotoxicity assay, HepG2. In kind it is cell-based. The following applies: Homo sapiens, read-out: IC50 Cytotoxicity HepG2.
Description: as §1, §2

A further series has as its system DLD-1. Nature of the series: SRB cytotoxicity assay, DLD-1. In kind it is cell-based. Particulars: Homo sapiens, read-out: IC50 Cytotoxicity DLD-1.
Description: as §1, §2

A short description of series [1]: SRB cytotoxicity assay, hepatocyte HL-7702. It counts as cell-based, human. The following applies: SRB assay, 48 h, human hepatocyte, mean ± SD, read-out: IC50 Cytotoxicity HL-7702.
Description: as §1, §2

A further series deals with T1, DNA Topo I (Homo sapiens, UniProt P11387).
T1 construct: purchased ThermoFisher, Waltham, MA, USA
T1 sequence (P11387 1-765): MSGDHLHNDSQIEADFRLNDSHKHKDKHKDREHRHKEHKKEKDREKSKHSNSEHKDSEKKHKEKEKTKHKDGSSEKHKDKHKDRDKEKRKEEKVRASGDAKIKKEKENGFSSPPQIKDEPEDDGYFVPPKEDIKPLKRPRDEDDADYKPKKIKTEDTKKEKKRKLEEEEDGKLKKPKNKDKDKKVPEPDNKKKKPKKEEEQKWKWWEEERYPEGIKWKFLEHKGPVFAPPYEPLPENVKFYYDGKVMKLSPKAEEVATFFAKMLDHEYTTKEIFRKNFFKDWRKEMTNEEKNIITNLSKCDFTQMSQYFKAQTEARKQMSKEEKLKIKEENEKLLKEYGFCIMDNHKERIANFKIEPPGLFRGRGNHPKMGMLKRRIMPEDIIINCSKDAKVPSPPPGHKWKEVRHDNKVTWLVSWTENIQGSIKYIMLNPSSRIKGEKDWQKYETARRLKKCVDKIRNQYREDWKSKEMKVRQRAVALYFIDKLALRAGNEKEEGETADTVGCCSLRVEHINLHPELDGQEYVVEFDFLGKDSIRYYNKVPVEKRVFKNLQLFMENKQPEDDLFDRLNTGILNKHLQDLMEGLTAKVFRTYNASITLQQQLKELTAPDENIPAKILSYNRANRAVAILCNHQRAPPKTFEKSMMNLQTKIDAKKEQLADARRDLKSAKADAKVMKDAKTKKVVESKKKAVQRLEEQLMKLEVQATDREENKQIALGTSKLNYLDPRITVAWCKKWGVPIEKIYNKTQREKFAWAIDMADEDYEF
Briefly: Topo I inhibition assay (DNA relaxation assay). In kind it is biochemical. The following applies: for IC50: DNA relaxation assay, pBR322, mean ± SD; for inhibition at 400 µM: read-out: percentage inhibition on Topo I activity. The method, then:
The DNA relaxation assay was adopted to investigate the compounds’ inhibitory activities on Topo I. Different concentrations of the compounds, dissolved and diluted in DMSO, were added into the relaxation buffer (50 mM Tris, pH 7.5, 50 mM KCl, 10 mM MgCl2, 0.1 mM EDTA, 0.5 Mm dithiothreitol, and 0.05 mg/mL bovine serum albumin) containing 0.2 U Topo I (ThermoFisher, Waltham, MA, USA) and incubated at room temperature for 10 min. After that, 500 ng supercoiled pBR322 plasmid DNA (ThermoFisher, Waltham, MA, USA) was added and then incubated at 37 °C for another 30 min. Finally, the reactions were stopped with a stopping solution (5% sodium dodecyl sulfate, 0.0025% bromophenol blue, and 25% glycerol), and the mixtures were applied onto 0.8% agarose gel and subjected to electrophoresis for 1.5 h in Tris-Acetate-EDTA buffer. After being stained with GelRed (Biotium, Fremont, CA, USA), the gel was imagined with the imaging system (Biotop, Shanghai, China). […] The band density of the supercoiled DNA was quantified by the ImageJ software (version 1.53a, National Institutes of Health, Bethesda, MD, USA), and the inhibition activity is expressed as the percentage inhibition and calculated by formula: Inhibition % = [(A − B)/(C − B)] × 100%, where A is the band density of the tested samples, B is the band density of the negative control, and C is the band density of the blank control.

Series [2] is described as follows: SRB cytotoxicity assay, panel of five human cancer cell lines and one human hepatocyte cell line. Particulars: human. The method, then:
(§3) The cytotoxicities of 1–29 were tested by an SRB assay on a panel of five human cancer cell lines and one human hepatocyte cell line.
(§4) The cytotoxic activities of the compounds against cancer cells were examined with a sulforhodamine B (SRB) colorimetric assay. Cells were seeded at a density of 5 × 10^3/well in 96-well plates for 24 h; various concentrations of the tested compounds, dissolved in DMSO and diluted with the complete medium, were added in the wells in triplicate and incubated for 48 h. After that, the cell viability was assessed with the SRB assay as we described before. The IC50 values were determined using the Reed and Muench method and are expressed as the mean ± SD of at least three independent measurements.

Series [3] has as its system DLD-1 cells. Nature of the series: DNA content analysis (cell cycle, flow cytometry) in DLD-1. In kind it is cell-based, human. Particulars: 24 h. The method, then: (§5) Cells were seeded in 6-well plates and allowed to adhere for 24 h at 37 °C. After treatment with different concentrations of the samples for another 24 h, the cells were harvested and washed with PBS, and then, the DNA content analysis was conducted with a cell cycle staining kit (Multi sciences, Hangzhou, China), according to the manufacturer’s instructions. The fluorescence intensity of the cells was measured by flow cytometry (Beckman CytoFlex, Miami, FL, USA).
(A flow cytometer gives signals particle by particle.)

Series [4] relates to DLD-1 cells. Nature of the series: Western blot of cell cycle-related proteins in DLD-1. In kind it is cell-based, human. The following applies: 24 h. The method, then: Cells treated with the compounds were harvested, and the total protein was isolated with lysis buffer (72 mM Tris pH 6.8, 2% SDS, 10% glycerol, and 0.1% bromophenol blue). The proteins were subjected to SDS-PAGE and transferred to a 0.45 μm PVDF membrane (Millipore, Burlington, USA). After being blocked with 5% non-fat milk in TBST, the membranes were washed and then incubated with specific primary antibodies (Cdk2 and Cdk6 were purchased from BBI Life Sciences Corporation, Shanghai, China; cyclin A, cyclin B, cyclin D, cyclin E, Cdk1, and Cdk4 were purchased from Proteintech, Rosemont, IL, USA) in TBST containing 2% non-fat milk overnight at 4 °C. After washing, the membranes were incubated with secondary horseradish peroxidase (HRP)-conjugated antibodies at room temperature for 1 h. The blot was visualized using an enhanced chemiluminescence assay kit (Meilunbio, Dalian, China) under a chemiluminescence detector (Tanon, Shanghai, China). The band density of the blot was quantified by the ImageJ software with at least three independent experiments.
A general note: In western blotting, separated proteins are transferred to a membrane and probed.

Another series concerns HCT116 cells. Nature of the series: DNA content analysis (cell cycle, flow cytometry) in HCT116. It counts as cell-based, human. Particulars: 24 h. The method, then:
as §5
Figure S21 Results of flavonoid 5 induced cell cycle arrests in HCT116 cells. A)
Representative images of flow-cytometry analysis of DNA content; B) Statistic analysis
of cells in G1, S, and G2/M phase after treated with 5. After treatment with 2 and 1 μM
compounds 5 for 24 h, the percentages of cell population in the G2/M phase
respectively, which meant a potent G2/M cell cycle arrest caused by the treatment (P<
0.0001). In addition, after treatment with 0.5 μM compounds 5 for 24 h, the percentages
that an apparent G1 or S phase arrest was induced after the treatment with a lower
different from the vehicle control. Data are expressed as mean ± SD values from three
(1 picture or pasted object on this page, not shown here)

The subject of series [5] is A549, HCT116, MDA-MB-231, HepG2, DLD-1, HL-7702. Nature of the series: SRB cytotoxicity assay, panel of five human cancer cell lines and one human hepatocyte cell line. The following applies: tested concentration of 200 μM. The method, then: as §3, §4
The mark [6] stands for this setting: A549, SRB assay, 48 h, mean ± SD.
[7] abbreviates: HCT-116, SRB assay, 48 h, mean ± SD.
[8] abbreviates: MDA-MB-231, SRB assay, 48 h, mean ± SD.
Where [9] appears, read: HepG2, SRB assay, 48 h, mean ± SD.
[10] abbreviates: DLD-1, SRB assay, 48 h, mean ± SD.

Where two headings read alike, the source gives them in different places.

From paper PMC11314063, “Inhibition of DNA Topoisomerase Ι by Flavonoids and Polyacetylenes Isolated from Bidens pilosa L” (Molecules, 2024) come the findings set out here.

One may read the IC50 as the concentration that gives 50% inhibition. By inhibition is commonly meant the change of the read-out against control, counted positive when it falls.

Regarding `COc1ccc(/C=C/C(=O)c2ccc(OC)cc2O)cc1` [Compound 3], the IC50 with A549 (setting [6]) was 136 ± 25 µM; in the series on HCT116 (setting [7]) it was 178 ± 6.11 µM; in the series on MDA-MB-231 (setting [8]), 167 ± 5.63 µM; with HepG2 (setting [9]), over 200 µM; in the series with DLD-1 (setting [10]), 117 ± 11.6 µM; at DNA Topo I it was over 400 µM. Besides, the IC50 at 48 h was over 200 µM in series [1] (HL-7702 hepatocyte cell line) and at least 50.5 µM in series [2]. For the same compound, on DNA Topo I, the inhibition at 400 µM amounted to 24.6%.
Consider `COc1ccc(-c2oc3cc(O)c(OC)c(O)c3c(=O)c2OC)cc1O` [Compound 5], for which the IC50 is 2.16 ± 0.3 µM in the series on A549 (setting [6]); 0.79 ± 0.13 µM with HCT116 (setting [7]); 39.7 ± 4.58 µM with MDA-MB-231 (setting [8]); 40.3 ± 11.1 µM with HepG2 (setting [9]); 0.6 ± 0.05 µM with DLD-1 (setting [10]); 146 ± 7.88 µM at DNA Topo I. For the same compound, the IC50 at 48 h in [1] (HL-7702 hepatocyte cell line) was found to be 14.4 ± 0.45 µM. Also, the “percentage of cells in the G1/S phase” value with DLD-1 cells [3] (DLD-1, 0.5 μM) was 85.30%; with DLD-1 cells [3] (DLD-1, 1 μM), 76.83%; in the series with HCT116 cells (HCT116, 0.5 μM) it was 91.23%. The “percentage of cell population in the G2/M phase” value in the series with DLD-1 cells [3] (DLD-1, 2 μM) is given as 86.05%; with HCT116 cells (HCT116, 1 μM) it was 81.84%; in the series with HCT116 cells (HCT116, 2 μM) it was 89.72%. Further, the “percentage of cells in the G1/S (combined) phase” value in the series on DLD-1 cells [3] (DLD-1, 2 μM) was 13.46%. Also, the “expression levels of cyclin A, cyclin B, and CDK6” value in the series with DLD-1 cells [4] (DLD-1, 2 μM) was “potently decreased”. The “expression of cylcin D, cyclin E, and CDK6” value in the series on DLD-1 cells [4] (DLD-1, 1 and 0.5 μM) is recorded as “potent downregulation”. In addition, the “percentage of cells in G1/S (combined) phase” value is 18.13% in the series on HCT116 cells (HCT116, 1 μM) and 10.16% in the series on HCT116 cells (HCT116, 2 μM).
Turning to `COc1ccc(-c2oc3cc(O[C@@H]4O[C@H](CO)[C@@H](O)[C@H](O)[C@H]4O)cc(O)c3c(=O)c2OC)cc1O` [Compound 13], the IC50 is over 200 µM in the series on A549 (setting [6]); 139 ± 11.3 µM with HCT116 (setting [7]); over 200 µM in the series on MDA-MB-231 (setting [8]); over 200 µM with HepG2 (setting [9]); 179 ± 5.94 µM with DLD-1 (setting [10]); over 400 µM against DNA Topo I. Also, the IC50 at 48 h in series [1] (HL-7702 hepatocyte cell line) was over 200 µM; in [2], at least 50.5 µM. The inhibition at 400 µM at DNA Topo I came out at 38.6%.
With `C=CCCCCC[C@H](O)[C@@H](O)[C@H](C#CC#CCCC)OC` [Compound 29], the IC50 was over 200 µM in the series with A549 (A549, 48 h); over 200 µM with HCT116 (HCT-116, 48 h); over 200 µM in the series on MDA-MB-231 (MDA-MB-231, 48 h); over 200 µM in the series on HepG2 (HepG2, 48 h); over 200 µM in the series on DLD-1 (DLD-1, 48 h); over 400 µM against DNA Topo I. Also, in series [1], the IC50 at 48 h is over 200 µM. In series [5], the “cytotoxicity in all cell lines” value was “no cytotoxicity”.
